Reference: ChEMBL document CHEMBL1122922, “Inhibition of muscarinic receptor binding and acetylcholine-induced contraction of guinea pig ileum by analogues of 5'-(isobutylthio)adenosine” (J Med Chem, 1985)

Target: Muscarinic acetylcholine receptor
Assay: Ability to inhibit binding of [3H]QNB to Muscarinic acetylcholine receptor in cultured N4TG1 neuroblastoma cells at 1e-8 to 1e-3 M

| SMILES | I 50 [µM] |
| --- | --- |
| CC(C)CSCC1CC(n2cnc3c(N)nccc32)C(O)C1O (centres undefined) | 210 |
| CC(C)CSC[C@H]1OC(n2cnc3c(N)ccnc32)[C@H](O)[C@@H]1O (some centres undefined) | 52 |
| CC(C)CSC[C@H]1OC(n2cnc3c(N)nccc32)[C@H](O)[C@@H]1O (some centres undefined) | 39 |
| CC(C)CSC[C@H]1OC(n2cnc3c(N)ncnc32)[C@H](O)[C@@H]1O (some centres undefined) | 1500 |
